Measurements: patent EP0722725A1, “VASCULAR SMOOTH MUSCLE CELL MIGRATION INHIBITOR” (TEIJIN LIMITED, priority 1994, dated 1996)

Assays:
[1] = system: vascular smooth muscle cell derived from a human normal aorta; experiment: Measurement of the inhibition activity on cell migration (PDGF-mediated, Transwell Chamber); format: cell-based; conditions: concentration of 10^-7M; migration mediated by human PDGF 10 ng/ml, 6 hours; compared with the cell migration counts where no test compound was added; read-out: inhibition activities on cell migration
Description: A Transwell Chamber (Costar Co., registered trademark) was used to measure the inhibitory activity. The chamber is divided into a lower and a upper chamber with an 8-µm pore size membrane filter (PVP-free polycarbonate filter, Nucleopore Co., registered trademark), and the filter was pretreated on its lower surface with 5 µg of rat tail collagen type 1 (Becton Dickinson Co.). To the upper chamber was added 100 µl of a 1.5 x 10^6/ml suspension of cells in a mixed solution of DMEM (supplied by Flow Laboratories Co.) and 0.1% BSA (supplied by Nakarai Tesque Co.), and a solution of human PDGF (supplied by Becton Dickinson Co.), which is prepared by diluting with the same mixed solution to giving the final concentration of 10 ng/ml, is filled in the lower chamber (600 µl). […] After the chamber was allowed to stand under 5%-CO2 atmosphere at 37°C For 6 hours, the filter was taken out. […] After cells adhered on the upper surface of the filter were removed with a cotton swab, the cells migrated to the lower surface were counted under a high-magnifying-power microscope (x200, x400) in terms of cell nuclei. Usually, five fields were counted per filter. Cell migration was expressed by the average cell count of the five fields ± the standard deviation. The significant difference was examined by Student's two-tailed t-test.

[2] = Acute toxicity; format: in vivo; conditions: no method, species or dose given

## CCCC[C@H](C)C[C@H](O)/C=C/[C@@H]1[C@H]2CC(CCc3ccc(C(=O)OC)cc3)=C[C@H]2C[C@H]1O [compound 5e]
[1]
  inhibition at 0.1 µM: 13.9%
[2]
  acute toxicity: neither of the compounds 5e and 6b had problem with acute toxicity
